Measured values reported in patent publication US7807400B2, “Methods for identifying chemical modulators of Ras superfamily GTPase activity” (The University of North Carolina at Chapel Hill, priority 2004, dated 2010).
Entries after “also recorded” stand apart in the source; their conditions may differ.

Columns and labels:
Type in all cases: biochemical
[1] = biological target: Dbs-mediated activation of RhoA (Homo sapiens, UniProt P61586); assay: fluorescence guanine nucleotide exchange reaction, Dbs-mediated activation of RhoA; details: fluorescence after addition of GEF, versus DMSO vehicle control
H-Ras = H-Ras (Homo sapiens, UniProt P01112); assay: complementary radiolabeled nucleotide exchange assay on H-Ras
[2] = system: Tiam1-mediated activation of Rac1; assay: fluorescence based guanine nucleotide exchange assay, Tiam1-mediated activation of Rac1
Cdc42 = Cdc42 (Homo sapiens, UniProt P60953); assay: complementary radiolabeled nucleotide exchange assay on Cdc42
RhoA = RhoA (Homo sapiens, UniProt P61586); assay: complementary radiolabeled nucleotide exchange assay on RhoA
Rac1 = Rac1 (Homo sapiens, UniProt P63000); assay: complementary radiolabeled nucleotide exchange assay on Rac1
Rap2A = biological target: T1, Rap2A (Homo sapiens, UniProt P10114); assay: intrinsic guanine nucleotide exchange of Gpp(NH)p-preloaded Rap2A with mant-GTP (FRET); details: 1 μM RGS14 RBD protein, 100 nM Rap2A, 1 μM mant-GTP, 37° C., compared to Rap2A alone, p<0.05
T1 sequence (P10114 1-183): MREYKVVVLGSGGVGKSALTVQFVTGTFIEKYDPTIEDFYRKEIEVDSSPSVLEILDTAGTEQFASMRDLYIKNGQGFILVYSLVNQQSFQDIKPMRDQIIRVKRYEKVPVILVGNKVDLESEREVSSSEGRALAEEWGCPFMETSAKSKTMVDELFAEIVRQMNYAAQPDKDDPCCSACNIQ
Description: The intrinsic guanine nucleotide exchange rate of Gpp(NH)p-preloaded Rap2A (100 nM) was monitored with mant-GTP in the absence (solid) or presence (dashed) of the RBD tandem repeat (aa 300-447) from the putative Rap2A effector rat RGS14 (1 μM). In this example, 1 mL cuvettes were loaded with 1 μM mant-GTP (in 50 mM Tris pH 7.5, 5 mM MgCl2, 1 mM EDTA at 37° C.) and allowed to equilibrate prior to the addition of 100 nM Rap2A (preloaded with Gpp(NH)p) in the presence or absence of 1 μM of the RGS14 RBD protein. The dissociation of Gpp(NH)p was then measured by excitation of the tryptophan residue. The FRET-mediated excitation of bound mant-GTP was also measured. Binding of the RGS14 RBD repeat region to activated Rap2A prevents the loss of guanine nucleotide from the G-protein, thereby effectively acting as a guanine nucleotide dissociation inhibitor (GDI). Further, the incubation of Rap2A with the RGS14 tandem RBD repeat region slowed the rate of spontaneous nucleotide exchange by about 30% (p<0.05) when compared to that of Rap2A alone. Curves were fit as single exponential functions using GraphPad Prism™ (GraphPad Software, Inc.). […]

Chain of H-Ras (P01112 whole entry, species assumed): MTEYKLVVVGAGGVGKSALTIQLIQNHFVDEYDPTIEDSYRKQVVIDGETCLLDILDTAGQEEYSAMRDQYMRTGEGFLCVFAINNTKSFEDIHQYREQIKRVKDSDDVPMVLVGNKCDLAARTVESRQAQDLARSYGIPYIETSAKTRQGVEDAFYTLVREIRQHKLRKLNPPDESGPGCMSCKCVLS
Chain of Cdc42 (P60953 whole entry, species assumed): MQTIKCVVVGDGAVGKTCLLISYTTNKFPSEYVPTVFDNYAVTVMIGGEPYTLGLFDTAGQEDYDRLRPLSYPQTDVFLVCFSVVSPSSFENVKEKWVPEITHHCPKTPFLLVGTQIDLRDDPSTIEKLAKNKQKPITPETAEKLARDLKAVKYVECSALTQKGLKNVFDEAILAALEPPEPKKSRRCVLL
Chain of RhoA (P61586 whole entry, species assumed): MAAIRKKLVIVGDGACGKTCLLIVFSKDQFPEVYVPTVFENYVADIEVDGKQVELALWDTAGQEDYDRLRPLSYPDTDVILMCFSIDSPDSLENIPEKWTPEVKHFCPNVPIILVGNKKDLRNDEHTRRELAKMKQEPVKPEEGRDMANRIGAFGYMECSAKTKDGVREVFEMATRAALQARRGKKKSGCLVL
Chain of Dbs-mediated activation of RhoA (P61586 whole entry): as the sequence (P61586 whole entry, species assumed) above

Nc1nc2c(ncn2[C@@H]2O[C@H](COP(=O)(O)OP(=O)(O)O)[C@@H](O)[C@H]2O)c(=O)[nH]1 [GDP]
effect on Dbs-mediated RhoA activation / guanine nucleotide exchange [1]: inhibit guanine nucleotide exchange

O=C(O)C=Cc1ccc[c]([SbH]([O-])([OH])[OH])c1 [NSC#13778, 3-(3-(dihydroxy(oxido)stibino)phenyl)acrylic acid]
enhancement of nucleotide exchange on H-Ras (H-Ras): does not enhance nucleotide exchange
effect on GEF-mediated nucleotide exchange on Rac1 ([2]; NCI Diversity Set screen, 96-well kinetic format, secondary studies in 1 mL total volume): accelerated kinetics; also recorded: enhancing Tiam1-mediated Rac1 activation in a dose-dependent manner; also recorded: accelerates GEF-mediated nucleotide exchange on Rac1 in a dose-dependent manner
EC50 ([2]; acceleration of GEF-mediated nucleotide exchange on Rac1): ~4 µM
enhancement of nucleotide exchange on Cdc42 (Cdc42): does not enhance nucleotide exchange
enhancement of nucleotide exchange on RhoA (RhoA): does not enhance nucleotide exchange
activity in complementary radiolabeled assay (Rac1) (Rac1): confirmed

B1: RGS14 tandem RBD repeat region: RBD tandem repeat (aa 300-447) from the putative Rap2A effector rat RGS14 (protein, UniProt O08773 300-447, looked up, fragment)
chain: KYCCVYLPDGTASLALARPGLTIRDMLAGICEKRGLSLPDIKVYLVGKEQKALVLDQDCTVLADQEVRLENRITFQLELVGLERVVRISAKPTKRLQEALQPILAKHGLSLDQVVLHRPGEKQLVDLENLVSSVASQTLVLDTLPDAK
slowing of the rate of spontaneous nucleotide exchange of Rap2A (Rap2A): about 30%
